Laboratory results: the supplement of paper PMC10011410
± gives the standard deviation of the averaged measurements.

How the values were obtained:
U-2 OS [1] = assay: cell painting activity score (Mahalanobis distance from DMSO wells); higher = stronger morphological phenotype; conditions: 24 h
Experimental: (§1)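 Cell painting in U-2 OS cells (384-well, about 1,500 cells per well), compound exposure 24 h, usually six 2-fold concentrations from 20 to 0.625 uM (some compounds higher or lower). Relative cell count is the cell number per well relative to DMSO wells. Activity score is the Mahalanobis distance of the morphological profile from DMSO control wells. Mean of four technical replicate plates.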

U-2 OS [2] = assay: relative cell count vs DMSO (cell painting) (fraction of DMSO control); higher = more cells remaining (less cytotoxic); conditions: 24 h
Experimental: as §1

U-2 OS [3] = assay: AUC of culture confluence over time (live-cell imaging) (AUC (confluence % x time)); higher = more confluent culture (less growth inhibition)
Experimental: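 Live-cell Incucyte imaging of U-2 OS cells in F-12K medium. Compounds were tested mostly at 5, 10 and 20 uM, and cells were imaged every 4 h for up to 60 h. Value is the area under the curve of phase-contrast confluence over time.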

Structure (SMILES)	cell painting activity score (U-2 OS [1]; 0.625 µM)	cell painting activity score (U-2 OS [1]; 1.25 µM)	cell painting activity score (U-2 OS [1]; 2.5 µM)	cell painting activity score (U-2 OS [1]; 5 µM)	cell painting activity score (U-2 OS [1]; 10 µM)	cell painting activity score (U-2 OS [1]; 20 µM)	relative cell count (U-2 OS [2]; 0.625 µM)	relative cell count (U-2 OS [2]; 1.25 µM)	relative cell count (U-2 OS [2]; 2.5 µM)	relative cell count (U-2 OS [2]; 5 µM)	relative cell count (U-2 OS [2]; 10 µM)	relative cell count (U-2 OS [2]; 20 µM)	AUC of culture confluence over time (U-2 OS [3]; 5 µM)	AUC of culture confluence over time (U-2 OS [3]; 10 µM)	AUC of culture confluence over time (U-2 OS [3]; 20 µM)	cell painting activity score (U-2 OS [1]; 40 µM)	cell painting activity score (U-2 OS [1]; 80 µM)	relative cell count (U-2 OS [2]; 40 µM)	relative cell count (U-2 OS [2]; 80 µM)	AUC of culture confluence over time (U-2 OS [3]; 40 µM)	AUC of culture confluence over time (U-2 OS [3]; 80 µM)	cell painting activity score (U-2 OS [1]; 0.019532 µM)	cell painting activity score (U-2 OS [1]; 0.07812 µM)	cell painting activity score (U-2 OS [1]; 0.3124 µM)	relative cell count (U-2 OS [2]; 0.019532 µM)	relative cell count (U-2 OS [2]; 0.07812 µM)	relative cell count (U-2 OS [2]; 0.3124 µM)	AUC of culture confluence over time (U-2 OS [3]; 1.25 µM)
C[C@@H]1O[C@@H](O[C@H]2[C@H](O[C@H]3CC[C@@]4(C)[C@@H](CC[C@]5(C)[C@@H]4CC=C4[C@@H]6CC(C)(C)CC[C@]6(C(=O)O[C@@H]6O[C@H](CO[C@@H]7O[C@H](CO)[C@@H](O[C@@H]8O[C@@H](C)[C@H](O)[C@@H](O)[C@H]8O)[C@H](O)[C@H]7O)[C@@H](O)[C@H](O)[C@H]6O)CC[C@]45C)[C@]3(C)CO)OC[C@H](O)[C@@H]2O)[C@H](O)[C@H](O)[C@H]1O	3.46	5.62	3.28	3.16	3.23	2.9	0.985	0.966	0.955	1	1.01	1.04	45.1	48.4	45.2													
C=C1[C@@H](C)[C@H]2[C@H](Cc3ccccc3)NC(=O)[C@]23[C@H](OC(C)=O)/C=C/[C@@](C)(O)C(=O)[C@@H](C)C/C=C/[C@H]3[C@@H]1O	14.5	15.6	16.1	17.4	18.8	19.2	0.575	0.517	0.557	0.623	0.562	0.494	24.3	26	27.2													
Nc1c[n+](N2CCOCC2)no1.[Cl-]	6.05	6.1	9.31	10.9	12.9	15.2	0.896	0.814	0.739	0.578	0.503	0.489	49.4	49.9	48.7													
O=NN(CCCl)C(=O)NC1CCCCC1	3.56	4.22	4.72	4.42	4.76	7.36	0.975	0.937	0.985	0.988	0.963	0.875	46.1	48.4	47.4													
Nc1nccc2c1ncn2[C@@H]1C=C(CO)[C@@H](O)[C@H]1O	18.6	18.8	26.9	28	26.4	26.2	0.949	0.964	0.944	0.938	0.941	0.94	36.9	32.7	34.3													
Cn1ncnc2c(=O)n(C)c(=O)nc1-2	14.5	14	15.7	30	30.1	29	0.575	0.386	0.0951	0.0345	0.021	0.0323	16.9	16.5	14.2													
CCN(CC)Cc1ccc2cc(COC(=O)Nc3ccc(C(=O)NO)cc3)ccc2c1.Cl	16.1	14.9	15	15.6	16	16.9	0.781	0.654	0.491	0.424	0.403	0.373	16.5	20	18.5													
O=C1O[C@H]2[C@@H]3OC(=O)c4cc(O)c(O)c(O)c4-c4c(O)c(O)c5oc(=O)c6c(c(O)c(O)c7oc(=O)c4c5c76)-c4c(cc(O)c(O)c4O)C(=O)OC[C@H]3OC(O)[C@@H]2OC(=O)c2cc(O)c(O)c(O)c2-c2c1cc(O)c(O)c2O (stereo partly drawn)	5.43	7.35	6.54	7.71	7.7	12.5	1.01	1	1.04	1.02	0.968	0.808	47.1	42.3	38.4													
Cc1nc(Nc2ncc(C(=O)Nc3c(C)cccc3Cl)s2)cc(N2CCN(CCO)CC2)n1	11.4	12.6	12.3	12.2	13.1	12.8	0.973	0.883	0.89	0.894	0.806	0.839	32.5	29	22.6													
Cc1[nH]c2ccccc2c1CCNCc1ccc(/C=C/C(=O)NO)cc1	16.3	16	15.9	15.3	13.8	16.2	0.494	0.472	0.445	0.466	0.474	0.419	16.7	19.5	21													
O=c1c2ccccc2[se]n1-c1ccccc1	4.12	5.85	11.4	12.8	12.8	18	0.989	0.995	0.973	0.98	0.521	0.312	49.5	33.9	22.3													
ClC1=CC=C(C2=CSC(N/N=C3CCCC/3)=N2)C=C1	3.41	3.02	4.44	4.27	4.6	7.83	1.01	1.04	0.973	1	0.97	0.882				10	11	0.758	0.766	39.7	41.8							
O=C(O)C1=CC(=C(c2ccc(O)c(C(=O)O)c2)c2ccc(O)c(C(=O)O)c2)C=CC1=O	3.58	3.35	3.92	4.33	5.68	5.78	0.992	0.98	0.986	0.968	0.965	0.954	54.3	48.2	54													
CN(C)/N=N/c1nc[nH]c1C(N)=O	4.78	4.12	4.94	4.77	3.79	4.2	1	0.996	0.98	0.966	1.02	1.02	43.6	42.3	45.2													
C[C@@H]1C[C@@H]([C@H](O)CC2CC(=O)NC(=O)C2)C(=O)[C@@H](C)C1	9.38	9.5	11.4	11.5	12.8	14.2	0.783	0.651	0.576	0.534	0.475	0.479	21	19.4	20.1													
CC(=O)O[C@H]1C(=O)[C@@]2(C)[C@H]([C@H](OC(=O)c3ccccc3)[C@]3(O)C[C@H](OC(=O)[C@H](O)[C@@H](NC(=O)c4ccccc4)c4ccccc4)C(C)=C1C3(C)C)[C@]1(OC(C)=O)CO[C@@H]1C[C@@H]2O		24.9 ± 1.2		23.3 ± 0.75		24.1 ± 0.87		0.253 ± 0.051		0.222 ± 0.03		0.351 ± 0.024	17.4		20							16.9 ± 1.5	19 ± 0.57	22.1 ± 1.1	0.939 ± 0.12	0.744 ± 0.19	0.413 ± 0.16	17
CC[C@H]1CN2CCc3cc(OC)c(OC)cc3[C@@H]2C[C@@H]1C[C@H]1NCCc2cc(OC)c(OC)cc21.Cl.Cl.O	18.4	18.9	19.4	20.8	20.8	20.6	0.51	0.489	0.482	0.462	0.462	0.433	15.2	16	16.6													
C[C@@]1(CO)[C@H](O)CC[C@@]2(C)[C@H]1CC[C@H]1C[C@@H]3C[C@@]12CC[C@]3(O)CO	13.5	12.7	14.8	14.8	16.2	15.8	0.886	0.788	0.683	0.659	0.621	0.622	30.1	29	28.6													
NC(=O)c1ccc(I)c([N+](=O)[O-])c1	3.13	3.07	2.86	3.68	3.09	3.55	1.01	1.07	1.05	1.04	1.06	1.07	56.5	53.5	50.1													
CN1C(=O)[C@]23CC4=CC=C[C@H](O)[C@H]4N2C(=O)[C@@]1(CO)SS3	17.6	31.2	35.5	29.6	26.9	36.5	0.197	0.0207	0.0068	0.0047	0.00462	0.00499	7.79	7.52	8.46													
COC(=O)[C@@]12OC[C@]34[C@H]([C@@H](O)[C@@H]1O)[C@@]1(C)CC(=O)C(O)=C(C)[C@@H]1C[C@H]3OC(=O)[C@H](OC(=O)CC(C)C)[C@@H]24	15.1	15.9	16.9	17.5	18.1	17.9	0.469	0.475	0.461	0.47	0.397	0.365	14.4	12.2	13.9													
COC1=C2C[C@@H](C)C[C@H](OC)[C@H](O)[C@@H](C)/C=C(\C)[C@H](OC(N)=O)[C@@H](OC)/C=C\C=C(/C)C(=O)NC(=CC1=O)C2=O	8.75	12.7	13	14	13.3	14.5	0.954	0.911	0.867	0.759	0.663	0.619	20.3	18.8	20.8													
O=c1c(O)c(-c2ccc(O)c(O)c2)oc2cc(O)cc(O)c12	4.42	3.56	5.15	6.18	8.67	12.4	0.954	0.982	0.939	0.962	0.892	0.814	46.5	53.6	50.6													
Cc1ccc(C(=O)N(CCCN)[C@@H](c2oc3cc(Cl)ccc3c(=O)c2Cc2ccccc2)C(C)C)cc1.Cl	13.7	13	14	13.6	25.2	22	0.217	0.248	0.234	0.222	0.0425	0.029	20.2	15.1	11.9													
CC[C@@H]1/C=C/C=C/C[C@H](C)[C@@H](O)[C@](C)(O)C(=O)[C@H](C)[C@@H](O)[C@H](C)C(=O)[C@H](C)[C@@H](O)[C@H](C)/C=C/C(=O)O[C@H]2[C@@H](C)[C@@H](CC1)O[C@@]1(CC[C@@H](C)[C@@H](C[C@H](C)O)O1)[C@@H]2C	14.7	14.7	14.5	13.4	13.8	15	0.797	0.815	0.83	0.833	0.872	0.697	28.5	29.6	17.4													
COc1cc(=O)oc(/C=C/C=C/C=C/C(C)=C/[C@]2(C)O[C@H](C)[C@](C)(O)[C@H]2O)c1C	4.29	4.47	6.44	11.5	12.8	12.1	0.993	0.982	0.972	0.928	0.826	0.758	34.4	30.9	27.2													
C[n+]1ccc(-c2cc[n+](CCCCCCCCCC[P+](c3ccccc3)(c3ccccc3)c3ccccc3)cc2)cc1.[I-].[I-].[I-]	3.81	4.65	5.16	5.04	3.72	4.7	0.908	0.96	1	1.01	0.965	0.969	45.2	40	37.1													
C[C@@]12C(=O)OC(=O)[C@]1(C)[C@H]1CC[C@@H]2O1	13.8	14.1	13.8	13.3	13.5	9.67	0.887	0.831	0.869	0.887	0.918	0.792	32.8	33.9	19.5													
Cc1ccc(C(=O)N(CCCN)[C@@H](c2nc3cc(Cl)ccc3c(=O)n2Cc2ccccc2)C(C)C)cc1	11.9	10.6	13.1	13.9	28.6	17.6	0.22	0.209	0.227	0.225	0.0173	0.0529	18.6	21.1	9.6													
C[C@@H]1O[C@@H](O[C@H]2[C@H](O[C@H]3CC[C@@]4(C)[C@@H](CC[C@]5(C)[C@@H]4CC=C4[C@@H]6CC(C)(C)CC[C@]6(C(=O)O)CC[C@]45C)[C@]3(C)CO)OC[C@H](O[C@@H]3O[C@H](CO)[C@@H](O)[C@H](O)[C@H]3O)[C@@H]2O)[C@H](O)[C@H](O)[C@H]1O	4.55	9.15	31.1	31.3	33.6	35.9	0.916	0.143	0.0325	0.0427	0.0257	0.015	14.5	16.5	13													
